Paper PMC9299836 (eLife, 2022)
Values joined by “and” are separate entries in the source; they are usually repeats but may differ in a detail not shown here. Identical values can stand only once.

Assays:
mGluR2 [1] = target: T1, mGluR2 (Mus musculus, UniProt Q14BI2); assay: Functional calcium imaging, SNAP-mGluR2 (no FLAG-tag) with chimeric G protein Gqo5 in HEK293T cells; type: cell-based; design: Full length mGluR2 construct with an amber codon (TAG) mutation of amino acid A548 (azi-CRD) or N-terminal SNAP-tag (SNAP-mGluR2); host or cells: HEK293T; conditions: modulator alone; precluded analysis of glutamate potency and efficacy
mGluR2 [2] = target: T1, mGluR2; assay: Live-cell FRET, SNAP-m2 (VFT domain) inter-subunit sensor in HEK293T cells; conditions: for SNAP-m2 FRET response (PAM DRC) / SNAP-m2 FRET response (PAM DRC), Mean: Glutamate + 5μM LY487379; for SNAP-m2 FRET response (PAM DRC): individual cells, normalized to 1mM glutamate;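 as to all read-outs here: apparent FRET efficiency from whole-membrane ROIs of single cells, corrected for donor bleed-through and background, ΔFRET as treatment minus pretreatment signal, recorded at room temperature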
mGluR2 [3] = target: mGluR2 (Mus musculus, UniProt Q14BI2, INS715F); assay: Live-cell FRET, azi-ECL2 (7TM domain, extracellular loop 2) sensor in HEK293T cells; conditions: for Mean normalized azi-ECL2 FRET response: glutamate + 5μM modulator, maximal response normalized to 1mM glutamate;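 as to all read-outs here: Cy3/Cy5 click-labeled sensor, whole-membrane ROIs per cell, apparent FRET after bleed-through correction, ΔFRET as treatment minus pre-treatment signal, at room temperature, at least three biological replicates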
mGluR2 [4] = target: mGluR2 (Mus musculus, UniProt Q14BI2, A548F); assay: Live-cell FRET, azi-CRD (cysteine-rich domain) sensor in HEK293T cells; conditions: for Mean normalized FRET response, azi-CRD PAM DRC: glutamate + 5μM LY487379, maximal response normalized to 1mM glutamate
[5] = 5μM LY487379, ([1 mM glutamate + modulator] - [1 mM glutamate]) × 100

mGluR2 (Mus musculus, UniProt Q14BI2, INS715F), sequence (Q14BI2 with tags, fused parts or gaps INS715F): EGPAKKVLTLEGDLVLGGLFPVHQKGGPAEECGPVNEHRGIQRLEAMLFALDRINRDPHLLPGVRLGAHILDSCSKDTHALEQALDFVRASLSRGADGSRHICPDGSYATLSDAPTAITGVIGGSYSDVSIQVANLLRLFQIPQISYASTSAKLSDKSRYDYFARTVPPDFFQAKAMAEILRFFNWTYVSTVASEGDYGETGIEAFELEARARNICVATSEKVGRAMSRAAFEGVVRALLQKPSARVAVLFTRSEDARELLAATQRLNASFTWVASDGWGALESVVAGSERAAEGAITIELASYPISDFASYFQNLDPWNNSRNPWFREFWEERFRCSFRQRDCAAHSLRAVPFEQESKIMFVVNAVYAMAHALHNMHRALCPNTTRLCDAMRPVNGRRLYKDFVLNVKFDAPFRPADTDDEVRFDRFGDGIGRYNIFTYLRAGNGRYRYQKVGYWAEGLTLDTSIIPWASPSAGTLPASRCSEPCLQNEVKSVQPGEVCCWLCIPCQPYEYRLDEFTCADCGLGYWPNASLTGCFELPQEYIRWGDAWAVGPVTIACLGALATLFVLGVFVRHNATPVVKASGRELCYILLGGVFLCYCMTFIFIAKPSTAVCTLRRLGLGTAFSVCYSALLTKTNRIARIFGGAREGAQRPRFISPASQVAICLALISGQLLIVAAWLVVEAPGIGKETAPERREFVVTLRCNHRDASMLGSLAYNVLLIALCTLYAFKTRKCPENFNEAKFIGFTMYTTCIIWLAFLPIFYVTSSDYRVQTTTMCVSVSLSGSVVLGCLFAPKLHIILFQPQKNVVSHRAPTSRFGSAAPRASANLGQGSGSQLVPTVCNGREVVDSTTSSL
mGluR2 (Mus musculus, UniProt Q14BI2, A548F), sequence (Q14BI2 19-872 A548F): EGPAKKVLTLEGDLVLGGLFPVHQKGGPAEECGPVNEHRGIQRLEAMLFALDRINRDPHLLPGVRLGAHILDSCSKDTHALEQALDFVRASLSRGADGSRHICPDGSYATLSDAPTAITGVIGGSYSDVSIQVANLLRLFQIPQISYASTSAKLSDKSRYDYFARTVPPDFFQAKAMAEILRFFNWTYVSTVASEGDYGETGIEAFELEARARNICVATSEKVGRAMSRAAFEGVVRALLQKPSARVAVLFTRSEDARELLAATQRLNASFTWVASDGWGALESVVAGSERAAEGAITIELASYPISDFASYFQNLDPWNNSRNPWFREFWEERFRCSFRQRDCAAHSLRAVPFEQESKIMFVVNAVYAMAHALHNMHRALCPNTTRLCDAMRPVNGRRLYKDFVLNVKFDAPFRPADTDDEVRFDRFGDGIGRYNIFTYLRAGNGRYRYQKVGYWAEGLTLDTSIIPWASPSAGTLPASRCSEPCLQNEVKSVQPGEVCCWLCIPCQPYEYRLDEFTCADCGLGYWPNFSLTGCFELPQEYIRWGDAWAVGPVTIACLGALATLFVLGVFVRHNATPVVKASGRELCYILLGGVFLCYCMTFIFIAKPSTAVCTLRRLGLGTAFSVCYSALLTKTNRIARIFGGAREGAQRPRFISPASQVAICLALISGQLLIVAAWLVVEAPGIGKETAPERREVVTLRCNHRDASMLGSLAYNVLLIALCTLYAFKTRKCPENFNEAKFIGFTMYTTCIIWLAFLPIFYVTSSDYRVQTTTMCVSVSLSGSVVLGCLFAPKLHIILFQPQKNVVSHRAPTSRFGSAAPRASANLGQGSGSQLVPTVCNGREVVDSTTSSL
T1 sequence (Q14BI2 19-872): as the sequence (Q14BI2 19-872 A548F) above, with F530A counted along it

Effect of modulator itself on intracellular calcium flux (mGluR2 [1]): Direct activation of mGluR2 | SNAP-m2 - ΔEfficacy, Mean ΔEfficacy (mGluR2 [2]; [5]): 7.324 | SNAP-m2 FRET response (PAM DRC) (mGluR2 [2]; log[Glutamate] (M) -3): -1.073 | SNAP-m2 FRET response (PAM DRC), Mean (mGluR2 [2]; log[Glutamate] (M) -3): -1.073 | SNAP-m2 FRET response (PAM DRC) (mGluR2 [2]; log[Glutamate] (M) -4.1549): -1.073 and -1.043 and -1.045 and -1.173 | SNAP-m2 FRET response (PAM DRC), Mean (mGluR2 [2]; log[Glutamate] (M) -4.1549): -1.083 | SNAP-m2 FRET response (PAM DRC) (mGluR2 [2]; log[Glutamate] (M) -4.52288): -1.073 and -1.028 and -1.065 and -1.205 | SNAP-m2 FRET response (PAM DRC), Mean (mGluR2 [2]; log[Glutamate] (M) -4.52288): -1.093 | SNAP-m2 FRET response (PAM DRC), Mean (mGluR2 [2]; log[Glutamate] (M) -5): -0.9075 | SNAP-m2 FRET response (PAM DRC), Mean (mGluR2 [2]; log[Glutamate] (M) -5.39794): -0.5948 | SNAP-m2 FRET response (PAM DRC), Mean (mGluR2 [2]; log[Glutamate] (M) -5.82391): -0.3038 | SNAP-m2 FRET response (PAM DRC) (mGluR2 [2]; log[Glutamate] (M) -6.52288): -0.05434 and 0 and -0.02048 and -0.1132 | SNAP-m2 FRET response (PAM DRC), Mean (mGluR2 [2]; log[Glutamate] (M) -6.52288): -0.047 | SNAP-m2 FRET response (PAM DRC) (mGluR2 [2]; log[Glutamate] (M) -7): 0 | SNAP-m2 FRET response (PAM DRC), Mean (mGluR2 [2]; log[Glutamate] (M) -7): 0 | SNAP-m2 FRET response (PAM DRC) (mGluR2 [2]; log[Glutamate] (M) -7.30103): 0 | SNAP-m2 FRET response (PAM DRC), Mean (mGluR2 [2]; log[Glutamate] (M) -7.30103): 0 | SNAP-m2 FRET response (PAM DRC) (mGluR2 [2]; log[Glutamate] (M) -7.69897): 0 | SNAP-m2 FRET response (PAM DRC), Mean (mGluR2 [2]; log[Glutamate] (M) -7.69897): 0 | Mean max response (normalized max ΔFRET) (mGluR2 [2]; SNAP-m2, 1 mM glutamate + 5 μM modulator, normalized to 1 mM glutamate): 1.07 | Mean ΔPotency (mGluR2 [2]; SNAP-m2, 5μM modulator, (([modulator + glutamate]EC50 – [glutamate] EC50)/[glutamate] EC50) × 100): -67.8391 | Mean ΔEfficacy (mGluR2 [2]; SNAP-m2, 5μM modulator, ([1 mM glutamate + modulator] - [1 mM glutamate]) × 100): 7.324 | Hill slope of glutamate titration (mGluR2 [2]; SNAP-m2 sensor, + 5 μM modulator): –1.43 | azi-ECL2 - ΔEfficacy, Mean ΔEfficacy (mGluR2 [3]; [5]): 24.615 | Mean ΔPotency (mGluR2 [3]; 5μM modulator, (([modulator + glutamate]EC50 – [glutamate] EC50)/[glutamate] EC50) × 100): -30.8994 | Mean max response (normalized max ΔFRET) (mGluR2 [3]; azi-ECL2, 1 mM glutamate + 5 μM modulator, normalized to 1 mM glutamate): 1.25 | Hill slope of glutamate titration (mGluR2 [3]; azi-ECL2 sensor, + 5 μM modulator): 0.98 | Mean normalized azi-ECL2 FRET response (mGluR2 [3]; log[Glutamate] (M) -3): 1.246 | Mean normalized azi-ECL2 FRET response (mGluR2 [3]; log[Glutamate] (M) -4.1549): 1.162 | Mean normalized azi-ECL2 FRET response (mGluR2 [3]; log[Glutamate] (M) -4.52288): 1.05 | Mean normalized azi-ECL2 FRET response (mGluR2 [3]; log[Glutamate] (M) -5): 0.9021 | Mean normalized azi-ECL2 FRET response (mGluR2 [3]; log[Glutamate] (M) -5.39794): 0.6628 | Mean normalized azi-ECL2 FRET response (mGluR2 [3]; log[Glutamate] (M) -5.82391): 0.3586 | Mean normalized azi-ECL2 FRET response (mGluR2 [3]; log[Glutamate] (M) -6.52288): 0.0516 | Mean normalized azi-ECL2 FRET response (mGluR2 [3]; log[Glutamate] (M) -7): 0.00565 | Mean normalized azi-ECL2 FRET response (mGluR2 [3]; log[Glutamate] (M) -7.30103): 0 | Mean normalized azi-ECL2 FRET response (mGluR2 [3]; log[Glutamate] (M) -7.69897): 0 | azi-CRD - ΔEfficacy, Mean ΔEfficacy (mGluR2 [4]; [5]): 56.4462 | Hill slope of glutamate titration (mGluR2 [4]; azi-CRD sensor, + 5 μM modulator): 0.91 | Mean max response (normalized max ΔFRET) (mGluR2 [4]; azi-CRD, 1 mM glutamate + 5 μM modulator, normalized to 1 mM glutamate): 1.56 | Mean ΔPotency (mGluR2 [4]; azi-CRD, 5μM modulator, (([modulator + glutamate]EC50 – [glutamate] EC50)/[glutamate] EC50) × 100): -61.3748 | Mean normalized FRET response, azi-CRD PAM DRC (mGluR2 [4]; log[Glutamate] (M) -3): 1.564 | Mean normalized FRET response, azi-CRD PAM DRC (mGluR2 [4]; log[Glutamate] (M) -4.1549): 1.506 | Mean normalized FRET response, azi-CRD PAM DRC (mGluR2 [4]; log[Glutamate] (M) -4.52288): 1.431 | Mean normalized FRET response, azi-CRD PAM DRC (mGluR2 [4]; log[Glutamate] (M) -5): 1.21 | Mean normalized FRET response, azi-CRD PAM DRC (mGluR2 [4]; log[Glutamate] (M) -5.39794): 0.9243 | Mean normalized FRET response, azi-CRD PAM DRC (mGluR2 [4]; log[Glutamate] (M) -5.82391): 0.548 | Mean normalized FRET response, azi-CRD PAM DRC (mGluR2 [4]; log[Glutamate] (M) -6.52288): 0.2035 | Mean normalized FRET response, azi-CRD PAM DRC (mGluR2 [4]; log[Glutamate] (M) -7): 0.1104 | Mean normalized FRET response, azi-CRD PAM DRC (mGluR2 [4]; log[Glutamate] (M) -7.30103): 0.08348 | Mean normalized FRET response, azi-CRD PAM DRC (mGluR2 [4]; log[Glutamate] (M) -7.69897): 0
Structure (SMILES): COc1ccccc1Oc1ccc(N(Cc2cccnc2)S(=O)(=O)CC(F)(F)F)cc1 [LY487379, N -(4-(2-Methoxyphenoxy)phenyl)-N -(2,2,2− trifluoroethylsulfonyl)pyrid-3-ylmethylamine]
SNAP-m2 FRET response (PAM DRC) (mGluR2 [2]; log[Glutamate] (M) -5): -0.9102 and -0.7407 and -0.8397 and -1.14 | SNAP-m2 FRET response (PAM DRC) (mGluR2 [2]; log[Glutamate] (M) -5.39794): -0.5434 and -0.4233 and -0.4506 and -0.9619 | SNAP-m2 FRET response (PAM DRC) (mGluR2 [2]; log[Glutamate] (M) -5.82391): -0.2581 and -0.136 and -0.1638 and -0.657 | ΔPotency, individual cell responses (mGluR2 [3]; 5μM modulator, single cells, (([modulator + glutamate]EC50 – [glutamate] EC50)/[glutamate] EC50) × 100): -50.558 and -25.4476 and -23.8904 and -47.6382 and -34.9857 and -54.4511 and -26.0316 and -30.3706 and -10.8251 and 8.313 and -4.368 and -31.1486 and -23.7197 and -38.0027 and -24.5685 and -37.4665 and -50.1273 and -31.7846 and -24.8874 and -46.4706 | ΔEfficacy, individual cell responses (mGluR2 [3]; 5μM modulator, single cells, ([1 mM glutamate + modulator] - [1 mM glutamate]) × 100): 52.1008 and 4.706 and 3.279 and -3.644 and 40.8403 and 19.2658 and 55.7571 | Live-cell FRET max response normalized to 1mM glutamate (mGluR2 [3]; azi-ECL2 sensor, Glutamate + 5μM LY487379, individual values (N=7)): 1.4084 and 1.193 and 1.558 and 1.521 and 1.047 and 1.033 and 0.9636 | azi-CRD - ΔEfficacy, individual cell responses (mGluR2 [4]; 5μM LY487379, single cells): 81.7927 and 91.1647 and 102.83 and 105.34 and 78.0041 and 66.6667 and 72.6804 and 69.5464 and 76.2911 and 41.9214 and 42.0188 and 53.8462 and 0 and 21.4575 and 34.4595 and 42.2449 and 30.2041 and 33.2258 and 28.7834 | ΔPotency, individual cell (mGluR2 [4]; azi-CRD, 5μM modulator, calculated from individual cell responses): -86.3622 and -82.4274 and -82.7128 and -78.2764 and -89.1123 and -88.282 and -87.867 and -88.628 and -87.1232 and -72.2401 and -70.8565 and -64.63 and -55.982 and -66.7055 and -27.5303 and -19.9202 and -46.4693 and -21.7362 and -27.2709 and -11.7911 and -36.6107 and -57.7116
